According to patent publication US12065471B2, “B*44 restricted peptides for use in immunotherapy against cancers and related methods” (Immatics Biotechnologies GmbH, priority 2018, dated 2024):

How the values were obtained:
CD8+ T cells = assay: In vitro immunogenicity: T-cell priming with aAPCs loaded with peptide/MHC and anti-CD28, pMHC multimer readout; format: cell-based, human; conditions: pMHC multimer readout after T-cell priming
Procedure: After three cycles of stimulation, the detection of peptide-reactive cells was performed by 2D multimer staining with B*44/SEQ ID NO: 469 (FIG. 3A), B*44/SEQ ID NO: 512 (FIG. 3B), B*44/SEQ ID NO: 9 (FIG. 3C), B*44/SEQ ID NO: 11 (D), B*44/SEQ ID NO: 17 (E), B*44/SEQ ID NO: 35 (F) or B*44/SEQ ID NO: 41 (FIG. 3G). Right panels (FIGS. 3A through 3G) show control staining of cells stimulated with irrelevant B*44/peptide complexes. Viable singlet cells were gated for CD8+ lymphocytes. Boolean gates helped excluding false-positive events detected with multimers specific for different peptides.
In order to obtain information regarding the immunogenicity of the TUMAPs of the present invention, the inventors performed investigations using an in vitro T-cell priming assay based on repeated stimulations of CD8+ T cells with artificial antigen presenting cells (aAPCs) loaded with peptide/MHC complexes and anti-CD28 antibody.
In order to perform in vitro stimulations by artificial antigen presenting cells loaded with peptide-MHC complex (pMHC) and anti-CD28 antibody, the inventors first isolated CD8+ T cells from fresh HLA-A*02 leukapheresis products via positive selection using CD8 microbeads (Miltenyi Biotec, Bergisch-Gladbach, Germany) of healthy donors obtained from the University clinics Mannheim, Germany, after informed consent.
PBMCs and isolated CD8+ lymphocytes were incubated in T-cell medium (TCM) until use consisting of RPMI-Glutamax (Invitrogen, Karlsruhe, Germany) supplemented with 10% heat inactivated human AB serum (PAN-Biotech, Aidenbach, Germany), 100 U/ml Penicillin/100 μg/ml Streptomycin (Cambrex, Cologne, Germany), 1 mM sodium pyruvate (CC Pro, Oberdorda, Germany), 20 μg/ml Gentamycin (Cambrex). 2.5 ng/ml IL-7 (PromoCell, Heidelberg, Germany) and 10 U/ml IL-2 (Novartis Pharma, Nümberg, Germany) were also added to the TCM at this step.
Generation of pMHC/anti-CD28 coated beads, T-cell stimulations and readout was performed in a highly defined in vitro system using four different pMHC molecules per stimulation condition and 8 different pMHC molecules per readout condition.
The purified co-stimulatory mouse IgG2a anti human CD28 Ab 9.3 (Jung et al., 1987) was chemically biotinylated using Sulfo-N-hydroxysuccinimidobiotin as recommended by the manufacturer (Perbio, Bonn, Germany). Beads used were 5.6 μm diameter streptavidin coated polystyrene particles (Bangs Laboratories, Illinois, USA).
800.000 beads/200 μl were coated in 96-well plates in the presence of 4×12.5 ng different biotin-pMHC, washed and 600 ng biotin anti-CD28 were added subsequently in a volume of 200 μl. Stimulations were initiated in 96-well plates by co-incubating 1×10^6 CD8+ T cells with 2×10^5 washed coated beads in 200 μl TCM supplemented with 5 ng/ml IL-12 (PromoCell) for 3 days at 37° C. Half of the medium was then exchanged by fresh TCM supplemented with 80 U/ml IL-2 and incubating was continued for 4 days at 37° C. This stimulation cycle was performed for a total of three times. For the pMHC multimer readout using 8 different pMHC molecules per condition, a two-dimensional combinatorial coding approach was used as previously described (Andersen et al., 2012) with minor modifications encompassing coupling to 5 different fluorochromes. Finally, multimeric analyses were performed by staining the cells with Live/dead near IR dye (Invitrogen, Karlsruhe, Germany), CD8-FITC antibody clone SK1 (BD, Heidelberg, Germany) and fluorescent pMHC multimers. For analysis, a BD LSRII SORP cytometer equipped with appropriate lasers and filters was used. Peptide specific cells were calculated as percentage of total CD8+ cells. Evaluation of multimeric analysis was done using the FlowJo software (Tree Star, Oregon, USA). In vitro priming of specific multimer+CD8+ lymphocytes was detected by comparing to negative control stimulations.

HLA-B*44:05 = HLA-B*44:05 (Homo sapiens, UniProt P01889, A223V/A65T/A93T/A95T/D201E/D98Y/E176V/E187L/E204Q/E69K/G107R/H137Y/K202T/L105A/L119I/N104T/N87E/Q56L/Q94N/R106L/R155S/R180D/S101N/S121R/S35A/S48T/T118I/V36M/W191S/Y91S); assay: MHC binding assay (UV-ligand exchange, β2m ELISA, peptide exchange yield); conditions: binding to HLA-B*44:05
How it was run: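 Binding is read as exchange yield, i.e. stabilized complex remaining after UV cleavage of a photolabile ligand in the presence of the candidate peptide. Streptavidin-captured monomers (100-fold dilution) are probed with HRP-anti-β2m, 1h at 37° C, TMB, A450. Standard curve: HLA-A*02:01/MLA-001 monomers at 15-500 ng/ml.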

12 (KEVDPTGHSF; listed as Homo sapiens) [compound 12]
Wells positive [%] (CD8+ T cells; Table 10b): + (<20% = +) | Peptide exchange (MHC class I binding score, peptide exchange yield) (HLA-B*44:05): +++ (>50 = +++)

29 (TENPKKFKI; listed as Homo sapiens) [compound 29]
Wells positive [%] (CD8+ T cells; Table 10b): ++++ (>=70% = ++++) | Peptide exchange (MHC class I binding score, peptide exchange yield) (HLA-B*44:05): +++ (>50 = +++)

49 (SEYVHSSF; listed as Homo sapiens) [compound 49]
Wells positive [%] (CD8+ T cells; Table 10b): + (<20% = +) | Peptide exchange (MHC class I binding score, peptide exchange yield) (HLA-B*44:05): ++ (>20% = ++)

78 (TEFSNHINL; listed as Homo sapiens) [compound 78]
Wells positive [%] (CD8+ T cells; Table 10b): ++ (20%-49% = ++) | Peptide exchange (MHC class I binding score, peptide exchange yield) (HLA-B*44:05): +++ (>50 = +++)

37 (IEQGRVVLW; listed as Homo sapiens) [compound 37]
Wells positive [%] (CD8+ T cells; Table 10b): ++++ (>=70% = ++++) | Peptide exchange (MHC class I binding score, peptide exchange yield) (HLA-B*44:05): ++++ (>75% = ++++)

25 (SEKEPGQQY; listed as Homo sapiens) [compound 25]
Wells positive [%] (CD8+ T cells; Table 10b): ++ (20%-49% = ++) | Peptide exchange (MHC class I binding score, peptide exchange yield) (HLA-B*44:05): ++ (>20% = ++)

9 (MEVDPIGHLYIF; listed as Homo sapiens) [compound 9]
Wells positive [%] (CD8+ T cells; Table 10b): +++ (50%-69% = +++) | Peptide exchange (MHC class I binding score, peptide exchange yield) (HLA-B*44:05): ++++ (>75% = ++++)

72 (AEVGDIIKVHF; listed as Homo sapiens) [compound 72]
Wells positive [%] (CD8+ T cells; Table 10b): ++ (20%-49% = ++) | Peptide exchange (MHC class I binding score, peptide exchange yield) (HLA-B*44:05): +++ (>50 = +++)

73 (GEGTLRLSW; listed as Homo sapiens) [compound 73]
Wells positive [%] (CD8+ T cells; Table 10b): ++ (20%-49% = ++) | Peptide exchange (MHC class I binding score, peptide exchange yield) (HLA-B*44:05): ++++ (>75% = ++++)

35 (RELVHMINW; listed as Homo sapiens) [compound 35]
Wells positive [%] (CD8+ T cells; Table 10b): ++ (20%-49% = ++) | Peptide exchange (MHC class I binding score, peptide exchange yield) (HLA-B*44:05): ++++ (>75% = ++++)

28 (QEFPAHSL; listed as Homo sapiens) [compound 28]
Wells positive [%] (CD8+ T cells; Table 10b): + (<20% = +) | Peptide exchange (MHC class I binding score, peptide exchange yield) (HLA-B*44:05): +++ (>50 = +++)

32 (REYEYDLKW; listed as Homo sapiens) [compound 32]
Wells positive [%] (CD8+ T cells; Table 10b): + (<20% = +) | Peptide exchange (MHC class I binding score, peptide exchange yield) (HLA-B*44:05): ++++ (>75% = ++++)

19 (MEHSDENIQFW; listed as Homo sapiens) [compound 19]
Wells positive [%] (CD8+ T cells; Table 10b): ++ (20%-49% = ++) | Peptide exchange (MHC class I binding score, peptide exchange yield) (HLA-B*44:05): ++ (>20% = ++)

47 (TEVHSSPAQRW; listed as Homo sapiens) [compound 47]
Wells positive [%] (CD8+ T cells; Table 10b): +++ (50%-69% = +++) | Peptide exchange (MHC class I binding score, peptide exchange yield) (HLA-B*44:05): +++ (>50 = +++)

57 (SEATHIITI; listed as Homo sapiens) [compound 57]
Wells positive [%] (CD8+ T cells; Table 10b): ++++ (>=70% = ++++) | Peptide exchange (MHC class I binding score, peptide exchange yield) (HLA-B*44:05): +++ (>50 = +++)

30 (EEFCFSVRF; listed as Homo sapiens) [compound 30]
Wells positive [%] (CD8+ T cells; Table 10b): + (<20% = +) | Peptide exchange (MHC class I binding score, peptide exchange yield) (HLA-B*44:05): +++ (>50 = +++)

420 (MEVDPIGHVY; listed as Homo sapiens) [compound 420]
Wells positive [%] (CD8+ T cells; Table 10b): + (<20% = +) | Peptide exchange (MHC class I binding score, peptide exchange yield) (HLA-B*44:05): +++ (>50 = +++)

4 (AEALGAAKKL; listed as Homo sapiens) [compound 4]
Wells positive [%] (CD8+ T cells; Table 10b): + (<20% = +) | Peptide exchange (MHC class I binding score, peptide exchange yield) (HLA-B*44:05): ++ (>20% = ++)

512 (AEPLVGQRW; listed as Homo sapiens) [compound 512]
Wells positive [%] (CD8+ T cells; Table 10a): ++++ (>=70% = ++++)

80 (TEQSLYYRQW; listed as Homo sapiens) [compound 80]
Wells positive [%] (CD8+ T cells; Table 10b): ++++ (>=70% = ++++) | Peptide exchange (MHC class I binding score, peptide exchange yield) (HLA-B*44:05): +++ (>50 = +++)

490 (TENRYCVQL; listed as Homo sapiens) [compound 490]
Wells positive [%] (CD8+ T cells; Table 10a): ++ (20%-49% = ++)

36 (LEQASRIWSW; listed as Homo sapiens) [compound 36]
Wells positive [%] (CD8+ T cells; Table 10b): ++++ (>=70% = ++++) | Peptide exchange (MHC class I binding score, peptide exchange yield) (HLA-B*44:05): ++++ (>75% = ++++)

68 (NEIDIHSIYF; listed as Homo sapiens) [compound 68]
Wells positive [%] (CD8+ T cells; Table 10b): ++ (20%-49% = ++) | Peptide exchange (MHC class I binding score, peptide exchange yield) (HLA-B*44:05): ++++ (>75% = ++++)

22 (TEEITEGVW; listed as Homo sapiens) [compound 22]
Wells positive [%] (CD8+ T cells; Table 10b): + (<20% = +) | Peptide exchange (MHC class I binding score, peptide exchange yield) (HLA-B*44:05): ++++ (>75% = ++++)

477 (VYEKNGYIYF; listed as Homo sapiens) [compound 477]
Wells positive [%] (CD8+ T cells; Table 10a): ++++ (>=70% = ++++)

506 (QESDLRLFL; listed as Homo sapiens) [compound 506]
Wells positive [%] (CD8+ T cells; Table 10a): + (<20% = +)

469 (SEAFPSRAL; listed as Homo sapiens) [compound 469]
Wells positive [%] (CD8+ T cells; Table 10a): +++ (50%-69% = +++)

460 (SEFMQVIF; listed as Homo sapiens) [compound 460]
Wells positive [%] (CD8+ T cells; Table 10a): + (<20% = +)

510 (SEDLAVHLY; listed as Homo sapiens) [compound 510]
Wells positive [%] (CD8+ T cells; Table 10a): ++++ (>=70% = ++++)

476 (MEHPGKLLF; listed as Homo sapiens) [compound 476]
Wells positive [%] (CD8+ T cells; Table 10a): + (<20% = +)

461 (MEVDPIGHVYIF; listed as Homo sapiens) [compound 461]
Wells positive [%] (CD8+ T cells; Table 10a): + (<20% = +)

491 (YEVDTVLRY; listed as Homo sapiens) [compound 491]
Wells positive [%] (CD8+ T cells; Table 10a): + (<20% = +)

504 (KESQLPTVM; listed as Homo sapiens) [compound 504]
Wells positive [%] (CD8+ T cells; Table 10a): ++ (20%-49% = ++)

515 (AEGGKVPIKW; listed as Homo sapiens) [compound 515]
Wells positive [%] (CD8+ T cells; Table 10a): ++ (20%-49% = ++)

508 (AESEDLAVHL; listed as Homo sapiens) [compound 508]
Wells positive [%] (CD8+ T cells; Table 10a): + (<20% = +)

467 (FEYDFLLQRI; listed as Homo sapiens) [compound 467]
Wells positive [%] (CD8+ T cells; Table 10a): + (<20% = +)

485 (NEHPSNNW; listed as Homo sapiens) [compound 485]
Wells positive [%] (CD8+ T cells; Table 10a): + (<20% = +)

459 (KEVDPAGHSY; listed as Homo sapiens) [compound 459]
Wells positive [%] (CD8+ T cells; Table 10a): ++ (20%-49% = ++)

488 (SENPETITY; listed as Homo sapiens) [compound 488]
Wells positive [%] (CD8+ T cells; Table 10a): ++ (20%-49% = ++)

494 (KEITGFLLI; listed as Homo sapiens) [compound 494]
Wells positive [%] (CD8+ T cells; Table 10a): ++ (20%-49% = ++)

497 (GEGAYGKVF; listed as Homo sapiens) [compound 497]
Wells positive [%] (CD8+ T cells; Table 10a): +++ (50%-69% = +++)

487 (LEMPHYSTF; listed as Homo sapiens) [compound 487]
Wells positive [%] (CD8+ T cells; Table 10a): +++ (50%-69% = +++)

474 (AEEEIMKKI; listed as Homo sapiens) [compound 474]
Wells positive [%] (CD8+ T cells; Table 10a): + (<20% = +)

463 (QEMQHFLGL; listed as Homo sapiens) [compound 463]
Wells positive [%] (CD8+ T cells; Table 10a): + (<20% = +)

468 (QEQDVDLVQKY; listed as Homo sapiens) [compound 468]
Wells positive [%] (CD8+ T cells; Table 10a): + (<20% = +)
